The values below come from patent US5658906A, “Cysteine protease and serine protease inhibitors” (Cephalon, Inc., priority 1996, dated 1997).

In one experiment the target is T1, Calpain I (Homo sapiens, UniProt P07384).
T1 construct: Calpain I was purified from human red blood cells; from tissue; host or cells: human red blood cells (packed, outdated)
T1 sequence (P07384 1-714): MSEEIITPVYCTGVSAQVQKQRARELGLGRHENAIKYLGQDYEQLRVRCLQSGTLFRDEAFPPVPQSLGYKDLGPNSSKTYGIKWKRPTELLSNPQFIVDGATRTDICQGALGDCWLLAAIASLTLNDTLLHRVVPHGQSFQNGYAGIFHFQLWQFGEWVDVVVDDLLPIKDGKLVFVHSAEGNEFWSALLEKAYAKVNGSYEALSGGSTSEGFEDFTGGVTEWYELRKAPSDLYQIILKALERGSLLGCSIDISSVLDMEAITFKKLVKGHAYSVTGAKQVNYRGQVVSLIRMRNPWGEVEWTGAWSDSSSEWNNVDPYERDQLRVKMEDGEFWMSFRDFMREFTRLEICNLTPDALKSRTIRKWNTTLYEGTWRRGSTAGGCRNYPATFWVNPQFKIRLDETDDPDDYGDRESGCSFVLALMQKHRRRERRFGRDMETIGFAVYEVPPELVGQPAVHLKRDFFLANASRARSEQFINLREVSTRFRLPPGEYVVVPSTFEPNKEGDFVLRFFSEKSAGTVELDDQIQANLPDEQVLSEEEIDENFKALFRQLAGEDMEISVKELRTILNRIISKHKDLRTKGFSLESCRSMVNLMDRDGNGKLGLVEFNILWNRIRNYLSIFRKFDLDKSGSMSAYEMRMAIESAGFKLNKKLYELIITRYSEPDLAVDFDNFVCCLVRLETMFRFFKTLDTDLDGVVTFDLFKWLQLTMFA
T1 sequence (P04632 1-268 partner): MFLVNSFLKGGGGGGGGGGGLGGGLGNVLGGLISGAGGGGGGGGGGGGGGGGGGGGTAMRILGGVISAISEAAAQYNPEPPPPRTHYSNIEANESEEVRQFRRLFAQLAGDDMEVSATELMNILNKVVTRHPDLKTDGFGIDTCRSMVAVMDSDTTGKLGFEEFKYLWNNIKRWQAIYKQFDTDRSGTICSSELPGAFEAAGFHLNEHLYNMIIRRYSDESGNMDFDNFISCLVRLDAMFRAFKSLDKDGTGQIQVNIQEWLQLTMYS
The experiment is described as follows: Inhibition and rate of inactivation of calpain I (Succ-Leu-Tyr-MNA hydrolysis). The format is biochemical. The conditions noted are these: mean of three or more independent analyses, corrected for substrate, k2 = kapp(1+[S]/Km), read-out: k2 (second order rate constant of inactivation), A = Calpain I. Here is the method: To evaluate inhibitory activity of our compounds, stocks (40 times concentrated) of each compound to be tested were prepared in 100% anhydrous dimethyl sulfoxide (DMSO) and 5 μl of each inhibitor preparation was aliquoted into each of three wells of a 96 well plate. Calpain I was purified from human red blood cells using a modification of the method described by Lee, W. J. et al. (Biochem. Internatl. (1990)22(1): 163-171). Briefly, 3 units of packed outdated red blood cells were washed 3× by repeated centrifugation at 500 rpm for 10 minutes through 900 mls of 0.9% NaCl. Cells were lysed in 20 mM Tris/1 mM EDTA/1 mM EGTA/5 mM mercaptoethanol (Buffer A) and centrifuged for 1 hour at 12,000 rpm in a GSA rotor using a Sorval centrifuge. The supernatant was collected and applied to a DEAE-sepharose FF column equilibrated in Buffer A+25 mM NaCl. After washing the column in Buffer A+25 mM NaCl, the bound protein was eluted at 117 ml/hr with a 25 mM to 150 mM NaCl linear gradient in Buffer A collecting 200, 10 mL fractions. Two μl of every fifth fraction was applied to nitrocelluose using a dot blot apparatus and calpain containing fractions identified by Western analysis. For detection of calpain, nitrocellulose sheets were first blocked in 5% Blotto (5% Carnation instant milk/10 mM Tris/[…]150 mM NaCl) for 30 minutes, followed by incubation for 1 hour in antibody directed against Calpain I (rabbit anti-human calpain I polyclonal sera, 1:1000 dilution in 5% Blotto). After three 5 minutes washes in 10 mM Tris/150 mM NaCl/0.05% Tween 20 the nitrocellulose was incubated for 1 hour in secondary alkaline phosphatase conjugated antibody (Biorad Cat#170-6518 1:2000 in 5% Blotto). After three 5 minutes washes in 10 mM Tris/150 mM NaCl/0.05% Tween 20 and 1 wash in 10 mM Tris/150 mM NaCl the nitrocellulose was incubated for up to 2 hours in a colorimetric substrate solution (Biorad Alkaline Phosphatase Substrate conjugate kit, cat#170-6432). The reaction was stopped by washing in water. After fractions containing calpain, and those in between, were pooled, solid ammonium sulfate was added to achieve a 30% solution and the mixture stirred for 1 hour at 4° C. Following collection of the precipitate by centrifugation for 1 hour at 4° C. at 12K rpm in a GSA rotor, the supernatant was collected and brought to 45% in ammonium sulfate. After stirring for 1 hour at 4° C., centrifugation was repeated. The supernatant was discarded and the precipitate resuspended in approximately 7 mls and dialyzed overnight at 4° C. against Buffer A+50 mM NaCl. The sample was then applied to a S300 gel filtration column preequilibrated in Buffer A+50 mM NaCl, washed and eluted at a flow rate of 20 ml/hr, collecting 200, 4 ml fractions. The peak of calpain was determined by assaying aliquots of every fifth fraction for enzyme activity monitored by the hydrolysis of a fluorogenic dipeptide substrate as described below. The peak fractions were pooled and the enzyme preparation used to test compounds for inhibitory activity. As an alternate to enzyme isolated from tissue sources, recombinant human calpain I has also been used to monitor compounds for inhibitory activity.
The foregoing enzyme preparation was diluted into assay buffer (i.e., 50 mM Tris, 50 mM NaCl, 1 mM EDTA, 1 mM EGTA, and 5 mM β-mercaptoethanol, pH 7.5 including 0.2 mM Succ-Leu-Tyr-MNA) and 175 μl aliquoted into the same wells containing the independent inhibitor stocks as well as to positive control wells containing 5 μl DMSO, but no compound. To start the reaction, 20 μl of 50 mM CaCl2 in assay buffer was added to all wells of the plate, excepting three, which were used as background signal baseline controls. Substrate hydrolysis was monitored every 5 minutes for a total of 30 minutes using Flouroskan II (ex=340 nm; em=430 nm). Substrate hydrolysis in the absence of inhibitor was linear for up to 15 minutes. […]

A further experiment addresses T2, Cathepsin B (Homo sapiens, UniProt P07858).
T2 construct: purchased Calbiochem 219364
Nature of the experiment: Inhibition and rate of inactivation of cathepsin B (Cbz-Phe-Arg-AMC hydrolysis). Type of experiment: biochemical. The settings on record: pH 6.0, 0.1 mM substrate, read-out: k2 (second order rate constant of inactivation), C = Cathepsin B. Here is the method:
Additionally, the order of reagents added to the plate was altered because both enzymes are constitutively active. Following inhibitor addition to the plates appropriate 2× concentrated stock dilutions of the enzyme preparations were made in assay buffer and 100 ul added to each well. The assay was initiated by addition of 100 ul of 2× concentrated stock dilution of substrate in assay buffer. Substrate hydrolysis was monitored using a Fluroskan II (ex=390 nm; em=460 nm).
Inhibition of enzyme activity was calculated as the percent decrease in the rate of substrate hydrolysis in the presence of inhibitor (.upsilon.i) relative to the rate in its absence (.upsilon.o). Comparison between .upsilon.o and .upsilon.i was made within the linear range for substrate hydrolysis. For screening, compounds were tested at 10 μM. Compounds having ≥50% inhibition at 10 μM were considered active. Apparent second order rate constants were determined from analysis of reaction progress curves under pseudo-first order conditions. Each determination represents the mean of three or more independent single cuvette analyses continually monitored via a Perkin-Elmer LS50B spectrofluorimeter. The rate of inhibition of hydrolysis was obtained by fitting the curve to the exponential equation (1):
y=Ae^-k.spsb.obs·t +B (1)
where y (Pt) is the product formed at time t. A and B are constants. A, the amplitude of the reaction, is given by [Po -P.varies. ] and B (=P.varies.) is the maximal product formed when the reaction is […]. This was corrected for the presence of equation (2): […]

In the case of `CC(C)C[C@H](NC(=O)OCc1ccccc1)C(=O)N[C@@H](Cc1ccccc1)C(=O)COn1nnc2c(Cl)c(Cl)ccc21` [Example 23, 1-[N-[N-Benzyloxycarbonyl-L-leucyl]-3S-4-phenyl-3-amino-2-oxybutyloxy]-4',5'-dichlorobenzotriazole], the kinact/KI on Calpain I was 64000 M⁻¹ s⁻¹. Consider `CC(C)C[C@H](NC(=O)OCc1ccccc1)C(=O)N[C@@H](Cc1ccccc1)C(=O)COn1nnc2c(Cl)cccc21` [Example 14, 1-[N-[N-Benzyloxycarbonyl-L-leucyl]-3S-4-phenyl-3-amino-2-oxybutyloxy]-4'-chlorobenzotriazole], for which the kinact/KI on Calpain I was 157000 M⁻¹ s⁻¹. Take `CC(C)C[C@H](NC(=O)OCc1ccccc1)C(=O)N[C@@H](Cc1ccccc1)C(=O)COn1nnc2ccc(-c3ccccc3)cc21` [Example 15, 1-[N-[N-Benzyloxycarbonyl-L-leucyl]-3S-4-phenyl-3-amino-2-oxybutyloxy]-6'-phenylbenzotriazole]: the kinact/KI on Calpain I turned out to be 77000 M⁻¹ s⁻¹; on Cathepsin B, 16000 M⁻¹ s⁻¹. With `CC[C@H](C(=O)C[C@@H](CC(C)C)C(=O)N[C@@H](Cc1ccccc1)C(=O)COn1nnc2ccccc21)c1ccccc1` [Example 46, 1-[N-[2R-(2-methylpropyl)-1,4-dioxo-5S-phenylheptan-1-yl]-3S-3-amino-2-oxo-4-phenylbutyloxy]benzotriazole], the kinact/KI on Calpain I came out at 3000 M⁻¹ s⁻¹.

On to `CC(C)C[C@H](NC(=O)OCc1ccccc1)C(=O)N[C@@H](Cc1ccccc1)C(=O)COn1nnc2c(Cl)c(Cl)c(Cl)c(Cl)c21` [Example 20, 1-[N-[N-Benzyloxycarbonyl-L-leucyl]-3S-4-phenyl-3-amino-2-oxybutyloxy]-4',5'6',7'-tetrachlorobenzotriazole], for which the kinact/KI on Calpain I worked out at 1300 M⁻¹ s⁻¹. `COc1cc2nnn(OCC(=O)[C@H](Cc3ccccc3)NC(=O)[C@H](CC(C)C)NC(=O)OCc3ccccc3)c(=O)c2cc1OC` [Example 29, 1-[N-[N-Benzyloxycarbonyl-L-leucyl]-3S-4-phenyl-3-amino-2-oxobutyloxy]-3-(6',7'-dimethoxy)benzotriazin-4-one]: the kinact/KI at Calpain I turned out to be 171000 M⁻¹ s⁻¹. As to `Cc1ccc2c(c1)nnn2OCC(=O)[C@H](Cc1ccccc1)NC(=O)[C@H](CC(C)C)NC(=O)OCc1ccccc1` [Example 27, 1-[N-[N-Benzyloxycarbonyl-L-leucyl]-3S-4-phenyl-3-amino-2-oxobutyloxy]-5'-methylbenzotriazole], the kinact/KI on Calpain I came out at 230000 M⁻¹ s⁻¹. Same read-out and setting: next, `CC(C)C[C@H](NC(=O)[C@H](CC(C)C)NC(=O)OCc1ccccc1)C(=O)COn1nnc2ccccc2c1=O` [Example 31, 1-[N-[N-Benzyloxycarbonyl-L-leucyl]-3S-5-methyl-3-amino-2-oxohexyloxy]-3-benzotriazin-4-one]: 46000 M⁻¹ s⁻¹. For `CC(C)C[C@H](NC(=O)OCc1ccccc1)C(=O)N[C@@H](Cc1ccccc1)C(=O)COn1nnc2cc(Cl)c(Cl)cc21` [Example 18, 1-[N-[N-Benzyloxycarbonyl-L-leucyl]-3S-4-phenyl-3-amino-2-oxybutyloxy]-5',6'-dichlorobenzotriazole], the kinact/KI on Calpain I was found to be 65000 M⁻¹ s⁻¹; at Cathepsin B, 115000 M⁻¹ s⁻¹. `CC(C)C[C@H](NC(=O)OCc1ccccc1)C(=O)N[C@@H](Cc1ccccc1)C(=O)COn1nnc2ccc(Cl)cc2c1=O` [Example 30, 1-[N-[N-Benzyloxycarbonyl-L-leucyl]-3S-4-phenyl-3-amino-2-oxobutyloxy]-3-(6'-chloro)benzotriazin-4-one]: the kinact/KI at Calpain I turned out to be 180000 M⁻¹ s⁻¹. With `CC(C)C[C@H](NC(=O)OCc1ccccc1)C(=O)N[C@@H](Cc1ccccc1)C(=O)COn1nnc2cc(Cl)ccc21` [Example 17, 1-[N-[N-Benzyloxycarbonyl-L-leucyl]-3S-4-phenyl-3-amino-2-oxybutyloxy]-5'-chlorobenzotriazole], the kinact/KI at Calpain I was 164000 M⁻¹ s⁻¹.

Take `Cc1ccc2nnn(OCC(=O)[C@H](Cc3ccccc3)NC(=O)[C@H](CC(C)C)NC(=O)OCc3ccccc3)c2c1` [Example 26, 1-[N-[N-Benzyloxycarbonyl-L-leucyl]-3S-4-phenyl-3-amino-2-oxobutyloxy]-6'-methylbenzotriazole]: the kinact/KI at Calpain I came out at 112000 M⁻¹ s⁻¹. Regarding `CC(C)C[C@H](NC(=O)OCc1ccccc1)C(=O)N[C@@H](Cc1ccccc1)C(=O)COn1nnc2c(Cl)cc(Cl)c(Cl)c21` [Example 21, 1-[N-[N-Benzyloxycarbonyl-L-leucyl]-3S-4-phenyl-3-amino-2-oxybutyloxy]-4',6',7'-trichlorobenzotriazole], the figures for the kinact/KI at Calpain I and at Cathepsin B were 1800 M⁻¹ s⁻¹ and 10000 M⁻¹ s⁻¹, respectively. In the case of `CCc1cc2c(cc1Cl)nnn2OCC(=O)[C@H](Cc1ccccc1)NC(=O)[C@H](CC(C)C)NC(=O)OCc1ccccc1` [Example 24, 1-[N-[N-Benzyloxycarbonyl-L-leucyl]-3S-4-phenyl-3-amino-2-oxybutyloxy]-5'-chloro-6'-ethylbenzotriazole], the kinact/KI is 84000 M⁻¹ s⁻¹ at Calpain I and 30000 M⁻¹ s⁻¹ at Cathepsin B.
